Test results from patent US5468754A, “11,7 substituted camptothecin derivatives and formulations of 11,7 substituted camptothecin derivatives and methods for uses thereof” (priority 1994, dated 1995).
Like-named read-outs stand apart in the source and are kept apart here.

Legend:
[1] = cited from earlier work
[2] = cited from earlier work; remark: listed apart in the source
Solubility in DMA or DMI = format: physicochemical; conditions: organic solvent or mixture, in presence of pharmaceutically acceptable acid
Protocol: Yet another embodiment of this invention for oral administration to a patient with cancer is 11,7-HECPT or 11,7-HMCPT dissolved in dimethylisosorbide (DMI) or dimethylacetamide (DMA) in the presence of a pharmaceutically acceptable acid. More specifically, approximately 10 mg of 11,7-HECPT or 11,7-HMCPT can be dissolved in each milliliter of DMA. However, only approximately 5.0 mg of 11,7-HECPT or 11,7-HMCPT can be dissolved in each milliliter of DMI.

[3] = tested on: Topoisomerase I, purified from human colon carcinoma cells; conditions: cited from earlier work
[4] = cited from earlier work; remark: listed apart in the source
topoisomerase I = conditions: cited from earlier work
[5] = more toxic than sodium camptothecin, mice; cited from earlier work
[6] = tested on: Topoisomerase I, purified from calf thymus; conditions: cited from earlier work
L1210 cells = conditions: cited from earlier work
[7] = above 30 mg/m^2/d CPT-11, 5 day continuous infusion; cited from earlier work
P388 tumor = conditions: intermittent bolus (days 1, 5, and 9), intraperitoneal; mice; cited from earlier work
[8] = Kaneda et al.; cited from earlier work
[9] = tested on: topoisomerase I enzyme of P388 cells; conditions: greater than CPT-11; cited from earlier work
[10] = in vivo; cited from earlier work
MOLT3 cells = conditions: more potent than CPT-11; cited from earlier work
[11] = similar form; vs intravenous administration (U.S. Pat. No. 4,713,246); cited from earlier work
[12] = compared with parent compound camptothecin; cited from earlier work
[13] = dimethylacetamide, read-out: solubility in DMA
[14] = dimethylisosorbide, read-out: solubility in DMI

**Q.** For `CC[C@@]1(O)C(=O)OCc2c1cc1n(c2=O)Cc2cc3cc4c(cc3nc2-1)OCO4` [10,11-methylene dioxycamptothecin], which water solubility [1] is on record?
**A.** relatively insoluble in water

**Q.** And the “activity in preclinical studies” value ([2]; preclinical studies)?
**A.** very active in preclinical studies

**Q.** For `CCc1c2c(nc3cc(O)ccc13)-c1cc3c(c(=O)n1C2)COC(=O)[C@]3(O)CC` [11,7-HECPT, 11-hydroxy-7-ethyl camptothecin], which solubility (Solubility in DMA or DMI; [13]) is on record?
**A.** ~10 mg/mL

**Q.** What about the solubility (Solubility in DMA or DMI; [14]) of the same compound?
**A.** ~5 mg/mL

**Q.** What about the antitumor activity ([2]; previously demonstrated) of the same compound?
**A.** previously demonstrated antitumor activity

**Q.** With `CC[C@@]1(O)C(=O)OCc2c1cc1n(c2=O)Cc2c-1nc1cc(O)ccc1c2OC` [11,7-HMCPT, 11-hydroxy-7-methoxy camptothecin] as the compound, how does the water solubility [1] read?
**A.** poor water solubility

**Q.** And the solubility (Solubility in DMA or DMI; [13])?
**A.** ~10 mg/mL

**Q.** What about the solubility (Solubility in DMA or DMI; [14]) of the same compound?
**A.** ~5 mg/mL

**Q.** And the antitumor activity ([2]; previously demonstrated)?
**A.** previously demonstrated antitumor activity

**Q.** Which antitumor activity ([2]; previously demonstrated) does the source give for `CC[C@@]1(O)C(=O)OCc2c1cc1n(c2=O)Cc2cc3ccc(O)cc3nc2-1` [11-HCPT, 11-hydroxy camptothecin] here?
**A.** previously demonstrated antitumor activity

**Q.** Which “inhibition of Topoisomerase I” value [3] does the source give for `CC[C@@]1(O)C(=O)OCc2c1cc1n(c2=O)Cc2cc3ccccc3nc2-1` [Camptothecin, camptothecin] here?
**A.** inhibited

**Q.** What about the Toxicity ([4]; camptothecin, Phase I trials, early 1970's) of the same compound?
**A.** unpredictable myelosuppression and hemorrhagic cystitis

**Q.** And the antitumor activity ([4]; camptothecin, Phase I trials)?
**A.** some antitumor activity

**Q.** What about the “stabilization of the cleavable complex” value (topoisomerase I; closed lactone vs non-lactone form) of the same compound?
**A.** only the closed lactone form of camptothecin helps stabilize the cleavable complex

**Q.** What about the water solubility [1] of the same compound?
**A.** highly water insoluble

**Q.** And the “toxicity of lactone form relative to sodium camptothecin” value [5]?
**A.** 10 -fold

**Q.** And the “inhibition of Topoisomerase I” value [6]?
**A.** inhibited

**Q.** And the “DNA strand breaks in L1210 cells” value (L1210 cells)?
**A.** an increase in unexplained protein-free breaks

**Q.** With `CCc1c2c(nc3ccc(O)cc13)-c1cc3c(c(=O)n1C2)COC(=O)[C@]3(O)CC` [SN38, 10-hydroxy-7-ethyl camptothecin] as the compound, how does the “CpMax of SN38 on increasing CPT-11 dose” value [7] read?
**A.** decrease in the CpMax of SN38

**Q.** What about the “inhibition of Topoisomerase I” value [3] of the same compound?
**A.** inhibited

**Q.** And the “anti-tumor activity compared to CPT-11 in vivo” value (P388 tumor)?
**A.** little anti-tumor activity compared to CPT-11

**Q.** What about the “plasma concentration of SN38 in mice” value [8] of the same compound?
**A.** maintained longer after CPT-11 administration than after treatment with SN38

**Q.** What about the water solubility [1] of the same compound?
**A.** poorly soluble in water

**Q.** And the “inhibitory activity against topoisomerase I relative to CPT-11” value [9]?
**A.** 3600 -fold

**Q.** What about the “overall fractional concentration of the lactone species” value [10] of the same compound?
**A.** fairly constant through a range of doses

**Q.** What about the “inhibition of Topoisomerase I” value [6] of the same compound?
**A.** inhibited

**Q.** What about the “potency in generating single-strand DNA breaks relative to CPT-11” value (MOLT3 cells) of the same compound?
**A.** approximately 1000 -fold

**Q.** For `COc1cc([C@@H]2c3cc4c(cc3[C@@H](O[C@@H]3O[C@@H]5CO[C@@H](C)O[C@H]5[C@H](O)[C@H]3O)[C@H]3COC(=O)[C@H]23)OCO4)cc(OC)c1O` [etoposide], which “bioavailability following oral administration” value [11] is on record?
**A.** substantially equivalent to that achieved by intravenous administration

**Q.** For `CC[C@@](O)(C(=O)O)c1cc2n(c(=O)c1CO)Cc1cc3ccccc3nc1-2` [sodium camptothecin], which Toxicity ([4]; sodium camptothecin, Phase II studies) is on record?
**A.** unpredictable and severe myelosuppression, gastrointestinal toxicity, hemorrhagic cystitis, and alopecia

**Q.** What about the antitumor activity ([4]; sodium camptothecin, clinical trials) of the same compound?
**A.** lack of significant anti-tumor activity

**Q.** For `CC[C@@]1(O)C(=O)OCc2c1cc1n(c2=O)Cc2cc3c(CN(C)C)c(O)ccc3nc2-1` [topotecan], which “Topo I inhibition” value (topoisomerase I) is on record?
**A.** Topo I inhibitor

**Q.** What about the Toxicity [12] of the same compound?
**A.** less sporadic toxicities

**Q.** And the antitumor activity ([2]; compared with parent compound camptothecin)?
**A.** retain the significant antitumor activity of the parent compound
